Assay results: US20240252668A1, “ANTIBODY DRUG CONJUGATES AND METHODS FOR MAKING THEREOF” (Novartis AG, priority 2021, published 2024)
Read-outs that look alike come from different tables or passages of the source. Starred links: 1 amine or outer side, 2 acyl side, 3 side chain; linkers in the order of their positions; H or OH if unused. Positions of bridges follow the written chain, without caps; N, C: chain ends. Non-standard residues stand in square brackets, D forms with d. Residues, ends and D or L forms follow the SMILES beside them. *: point of attachment. Leu(3R-OH,Nα-propionyl) = CCC(=O)N[C@H](C(=O)*)[C@H](O)C(C)C; X1 = CC(C)[C@@H](O[*:3])[C@H](N[*:1])C(=O)[*:2]; NMeT = CN[C@H](C(=O)O)[C@@H](C)O; dPhLac = O=C(O)[C@H](O)Cc1ccccc1; NMeA = CN[C@@H](C)C(=O)O; NMeDha = C=C(NC)C(=O)O

How the values were obtained:
[1] = tested on: A375 skin melanoma cell line (homozygous BRAF V600E); assay: Cell proliferation assay (resazurin cell viability), A375 cell line; format: cell-based; conditions: Homo sapiens, A-375
Procedure, shortened: (§1)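 Cells seeded the night before, then treated 96 h at 37 °C in RPMI/10% FCS (A375 in DMEM/10% FCS); compounds 260 nM to 0.036 nM in ⅓ dilution steps, one compound 10000 nM to 1.52 nM. Viability read by resazurin addition after 96 h.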

[2] = tested on: MP41 uveal melanoma cell line (heterozygous GNA11 Q209L); assay: Cell proliferation assay (resazurin cell viability), MP41 cell line; format: cell-based
Procedure, shortened: as §1

[3] = tested on: MDCK-LE monolayers; assay: Cell-based transwell assay with MDCK-low efflux monolayers (passive permeability); format: in vitro ADME; conditions: MDCK-LE monolayers
Protocol: (§2) Cell-based transwell assays with MDCK-low efflux monolayers: Compounds (A1) and 2-15 were tested in MDCK cell sub-clones with low effluxt ransporter activity (MDCK-LE) in order to determine their passive permeability. The incubations were performed at a contract research organization as described previously.

[4] = as above; format: in vitro ADME; conditions: dog; MDCK-LE monolayers
Protocol: as §2

[5] = tested on: Gαq-mutant uveal melanoma xenografts; conditions: systemically administered; cited from earlier work

C=C1C(=O)N[C@@H](C)C(=O)N(C)[C@@H](C)C(=O)N[C@@H]([C@H](OC(=O)[C@@H](NC(=O)CC)[C@H](O)C(C)C)C(C)C)C(=O)N(C)[C@@H]([C@@H](C)OC)C(=O)O[C@H](C(C)C)[C@H](NC(C)=O)C(=O)O[C@H](Cc2ccccc2)C(=O)N1C [Compound (A1), FR900359] (Ac-[X1][dPhLac][NMeDha]A[NMeA][X1](Leu(3R-OH,Nα-propionyl))[NMeT](Me); ester 1-C) gave a GI50 ([1]; A375 (GNAQ/11 wild type), 96 hours of treatment, read-out: GI50 by cell line, A375) greater than 260000 pM, a GI50 ([1]; A375 cell line, average of Rep. 1 and 2, read-out: GI50 A375 Average) greater than 260000 pM and a GI50 ([1]; A375 cell line, replicate 1, read-out: GI50 A375 Rep. 1) greater than 260000 pM. The GI50 ([1]; A375 cell line, replicate 2, read-out: GI50 A375 Rep. 2) was greater than 260000 pM, the GI50 ([2]; MP41 (GNA11 Q209L), 96 hours of treatment, read-out: GI50 by cell line, MP41) was 200 pM and the GI50 ([2]; MP41 cell line, average of Rep. 1 and 2, read-out: GI50 MP41 Average) was 200 pM. For the same molecule, the GI50 ([2]; MP41 cell line, replicate 1, read-out: GI50 MP41 Rep. 1) was 220 pM, the GI50 ([2]; MP41 cell line, replicate 2, read-out: GI50 MP41 Rep. 2) was 270 pM and the “% Fraction absorbed” value [3] was 59.7%. The Papp A→B [4] was 4.06 ×10⁻⁶ cm/s, the recovery [4] was 65% and the “tolerability of the active doses” value [5] was “well tolerated”.
